{"source": "patent US20260193180A1", "about": "“AUTOPHAGY INDUCING COMPOUNDS AND USES THEREOF” (SAMSARA THERAPEUTICS INC., priority 2022, published 2026)", "key": {"Prp-TDP43 mice": {"test_system": "Prp-TDP43 mice", "test": "Mouse model of Amyotrophic Lateral Sclerosis (ALS)", "settings": "30 mg/kg once per day, oral gavage; for increase in mean CAMP amplitude compared to the vehicle controlled group: sciatic nerve"}, "[1]": {"test_system": "C57BL/6JRj mice injured by intra-nigral injections of alpha-synuclein and CBE", "test": "Mouse model of Parkinson's disease (intra-nigral alpha-synuclein protofibrils plus CBE)", "format": "in vivo", "settings": "30 mg/kg per os once a day", "excerpt": "This model (run by Neuro-Sys SAS, France) uses C57BL/6JRj mice injured by intra-nigral injections of a solution containing protofibrils of alpha-synuclein (α-syn, precisely quantified by automatic Western Blot) and combined with pharmacological inhibition of GBA by conduritol B epoxide (CBE), in aged mice. The model mimics the main pathologies of PD: loss of dopaminergic neurons in the substantia nigra, neuroinflammation, deficits in motor coordination and synucleinopathy (α-syn aggregation). Any substance with positive effects in this model may be useful as a new therapeutic agent for the treatment or prevention of PD.\n• Type of animal: C57BL/6JRj (Male) • Age: 18 months old • Supplier: Janvier Labs • Animal number: 10 mice per group • Acclimation and clinical signs: Animals arrived on site 7 days (one week) before the experiment to allow optimal acclimation.\nOverview: CBE was administered along with the test compounds, starting on the day of the stereotaxic injections of the α-syn oligomer preparation.\nTest compounds at specific concentrations (see below) were administered per os (gavage or drinking water). • Test compound treatment: The test compounds were solubilized (vehicle=water), aliquoted and stored at −20° C. Aliquots were thawed overnight at 4° C. and given once a day. Treatment started on the day of the stereotaxic injections of α-syn preparation (Day 0). Treatment was administrated until the last day of the experiment (Day 28; =day of dissection). • CBE dose and administration: 50 mg/kg, Intraperitoneal (i.p.), twice a day. • CBE treatment: Administration of CBE (vehicle=saline [NaCl 0.9%] started on the day of the stereotaxic injections of α-syn preparation (Day 0). Treatment was administrated until the last day of the experiment (Day 28; =day of dissection), • Untreated control: vehicle (saline; i.p.) administered twice a day, • Stereotaxic injections of α-syn oligomers: Human α-syn peptide (stock at 69 μM in water at −20° C.) was reconstituted at 50 μM in NaCl, 0.9% (final concentration). All mice in compound treated groups were subjected to surgery and received 2.5 μL of α-syn solution. Mice were anesthetized by isoflurane (4%, for induction), in an induction chamber coupled with a vaporizer and to an oxygen concentrator. Mice were placed on the stereotaxic frame. Anesthesia was maintained by isoflurane (2%) with a face mask coupled to the isoflurane vaporizer and oxygen concentrator machine. The skull was exposed and holes were drilled. The α-syn preparation was bilaterally injected into the SNpc, at the following coordinates: A-P, −0.3 mm; M-L, +0.12 mm; D-V, −0.45 mm. Depth of anesthesia and rectal temperature were verified every 5 minutes. After surgery, mice were allowed to recover before being placed back in the cage.\n• i) Body mass • ii) Assessment of motor coordination: bar test and grid walking test • iii) Dopaminergic Tyrosine hydroxylase (TH)-positive neuron survival in the substantia nigra pars compacta (SNpc), i.e. a measure of the number of TH neurons in the SNpc • iv) α-syn area in TH positive neurons (a measure of the degree of aggregation of α-syn in TH positive neurons, in the SNpc)\n• Overall: For overall evaluation and body mass, mice were observed daily, and body mass was monitored prior to drug administration. • Assessment of motor coordination: bar test.\nIn the third week (Week 3) post-surgery, motor coordination of the mice was assessed with the bar test. The principle of the test is based on the capacity of the mice to cross a horizontal bar connected to a platform (18 mm of diameter, 60 cm long). The test requires good coordination between front and hindlimbs, and good balance. Mice are placed at one extremity of the bar and need to reach a platform located at the other side of the bar. Motor coordination was studied after two training sessions, one and two days before the test. Three sessions were recorded by a video camera system. […]"}}}
{"smiles": "CCOc1ccc(Cl)cc1CN1CC[C@@H](CN)C1.Cl", "note": "[Compound 12, (S)-(1-(5-chloro-2-ethoxybenzyl)pyrrolidin-3-yl)methanamine hydrochloride]", "values": [{"measurement": "body weight compared to the vehicle group", "setting": "Prp-TDP43 mice", "result": "increase"}, {"measurement": "mortality", "setting": "Prp-TDP43 mice; 60 days", "result": "No mortality was observed"}, {"measurement": "pathological clinical signs", "setting": "Prp-TDP43 mice; 60 days", "result": "No pathological clinical sign was observed"}, {"measurement": "decrease in mean NfL concentration (plasma) compared to the vehicle controlled group", "setting": "Prp-TDP43 mice; at three months of age", "result": 54, "unit": "%"}, {"measurement": "increase in mean NCV (nerve conduction velocity) compared to the vehicle controlled group", "setting": "Prp-TDP43 mice; at three months of age", "result": 139, "unit": "%"}, {"measurement": "increase in mean rotarod latency compared to the vehicle controlled group", "setting": "Prp-TDP43 mice; at three months of age", "result": 99, "unit": "%"}, {"measurement": "increase in mean CAMP amplitude compared to the vehicle controlled group", "setting": "Prp-TDP43 mice; at three months of age", "result": 73, "unit": "%"}, {"measurement": "decrease in mean NfL concentration (plasma) compared to the vehicle controlled group", "setting": "Prp-TDP43 mice; at two months of age", "result": 48, "unit": "%"}, {"measurement": "increase in mean rotarod latency compared to the vehicle controlled group", "setting": "Prp-TDP43 mice; at two months of age", "result": 76, "unit": "%"}, {"measurement": "increase in mean CAMP amplitude compared to the vehicle controlled group", "setting": "Prp-TDP43 mice; at two months of age", "result": 39, "unit": "%"}, {"measurement": "bar test: decrease in the mean time required to cross the bar compared to the α-syn/CBE injured group", "setting": "[1]; week 3", "result": 21, "unit": "%"}, {"measurement": "bar test: reduction in the mean number of steps required to cross the bar compared to the α-syn/CBE injured group", "setting": "[1]; week 3", "result": 2, "unit": "%"}, {"measurement": "bar test: reduction in the number of misplaced steps (failed strides) compared to the α-syn/CBE injured group", "setting": "[1]; week 3", "result": 33, "unit": "%"}, {"measurement": "decrease in the aggregation of α-syn in TH neurons (α-syn area) compared to the α-syn/CBE injured group", "setting": "[1]; week 4", "result": 10, "unit": "%"}, {"measurement": "grid walking test: increase in the total distance travelled during the test", "setting": "[1]; week 4", "result": 12, "unit": "%"}, {"measurement": "grid walking test: reduction in the mean number of failures per meter (number of missed steps)", "setting": "[1]; week 4", "result": 21, "unit": "%"}, {"measurement": "increase in the number of dopaminergic TH positive neurons in the SNpc compared to the α-syn/CBE injured group", "setting": "[1]; week 4", "result": 36, "unit": "%"}]}
